Measured values published in US20120029037A1, “ANIMAL ECTOPARASITE-CONTROLLING AGENT” (SUMITOMO CHEMICAL COMPANY, LIMITED, priority 2010, published 2012).

Columns and labels:
Assay type in all cases: in vivo
[1] = test system: Ticks (Haemaphysalis longicornis); assay: Pesticidal activity on ticks in filter paper test; conditions: 48 h, 100 mg/m^2, non-blood-fed young ticks, 2 days later
Method: Pesticidal Activity on Ticks (Haemaphysalis longicornis) in Filter Paper Test
Each (5 mg) of the present hydrazide compounds (5), (8), (11) and (12) was dissolved in acetone (10 mL), and this acetone solution (1 mL) was uniformly applied onto one side of a filter paper (TOYO No. 2; 5×10 cm; the surface area of the filter paper was 50 cm^2, and thus the amount of the present hydrazide compound applied was 100 mg/m^2). After drying, said filter paper was folded, and the both sides of the paper were clipped to form a bag. Into this bag, test ticks (Haemaphysalis longicornis, non-blood-fed young ticks, 10 ticks/group) were added, and the opening was clipped to seal the bag. Two (2) days later, the number of dead ticks was examined and the mortality was calculated by the following formula:
Mortality (%)=100×(number of dead ticks/number of ticks tested)

[2] = test system: Cat-infested cat fleas (Ctenocephalides felis); assay: Dropping application against cat-infested cat fleas; conditions: dropping on skin; for Flea control rates (%) at 2 days after the application: vs infestation before application; for Flea control rates (%) at 16 days after the application: vs placebo group
Method: Propping Application Against Cat-Infested Cat Fleas (Ctenocephalides felis)
The previous day before dropping application, 50 test fleas (cat flea adults) were deposited on a cat. Before the dropping application, infested fleas were counted.
(§1) The present hydrazide compound (5) (0.75 g or 1.5 g) was dissolved in diethylene glycol monoethyl ether (6.0 g) to prepare a test solution. Said test solution was directly dropped on the skin of the neck and back of the cat while pushing aside fur thereon on at a rate of 0.1 ml per 1 kg of the cat's body weight (dose amount: 10 or 20 mg/kg). This is referred to as a test group. On the other hand, diethylene glycol monoethyl ether alone was applied dropwise to a placebo group.
Two (2) days after the application, the number of living fleas, which were infesting the cats, was examined. When the examination was completed, all infested fleas were removed from the cats.
Fourteen (14) days later, 50 test fleas were re-deposited on each cat. Two (2) days after the re-deposit, the number of living fleas, which were infesting the cats, was examined. When the examination was completed, all infested fleas were removed from the cats. The infestation rate and control rate were calculated by the following formulae: […]
(i) Method of calculating infestation rate and control rate at the initial stage (2 days) after the application:
Infestation rate (%) at X days after application=(number of living fleas at X days/number of living fleas before application)×100
Control rate (%) at X days after application=(infestation rate of test group before application−infestation rate of test group at X days)/infestation rate of test group before application×100
(ii) Method of calculating infestation rate and control rate at 16 days after the application:
Infestation rate (%) at X days after application=(number of living fleas at X days/number of fleas deposited)×100
Control rate (%) at X days after application=(infestation rate of placebo group at X days−infestation rate of test group at X days)/infestation rate of placebo group at X days×100
(§2) In addition, if an infestation rate of a test group is higher than a placebo group, then the control rate is deemed to be 0%.

[3] = test system: Dog-infested ticks (Haemaphysalis longicornis); assay: Dropping application against dog-infested ticks; conditions: dropping on skin, 16 days after application, vs placebo group
Method: Propping Application Against Dog-Infested Ticks (Haemaphysalis longicornis)
as §1, with “(0.75” for “(0.75 g”, “dog” for “cat”, “thereon” for “thereon on”, “dog's” for “cat's”
Fourteen (14) days later, 100 test ticks were deposited on each dog. Two (2) days after the deposit, the number of living ticks, which were infesting the dogs, was examined. When the examination was completed, all infested ticks were removed from the dogs. The infestation rate and control rate were calculated by the following formulae: […]
Method of calculating infestation rate and control rate at 16 days after the application:
Infestation rate (%) at X days after application=(number of living ticks at X days/number of ticks deposited)×100
Control rate (%) at X days after the application=(infestation rate of placebo group at X days−infestation rate of test group at X days)/infestation rate of placebo group at X days×100
as §2

[4] = test system: Mouse-infested cat fleas (Ctenocephalides felis); assay: Dropping application against mouse-infested cat fleas; conditions: 0.5% w/v solution 200 μL dropwise along dorsal line, 2 days later
Method: Propping Application Against Mouse-Infested Cat Fleas (Ctenocephalides felis)
The present hydrazide compound (5) (25 mg) was dissolved in propylene carbonate (5 mL) to prepare a 0.5% w/v solution. Said solution (200 μL) was applied dropwise along the dorsal line of a mouse with a pipette. To a control group, propylene carbonate (200 μL) alone was applied. Each application was repeated 3 times per group.
After the dropping application, 20 cat fleas were deposited on each mouse. Two (2) days later, the number of dead cat fleas was examined and the mortality was calculated by the following formula:
(§3) Mortality (%)=100×(number of dead cat fleas/number of cat fleas tested)

[5] = test system: Mouse-infested ticks (Haemaphysalis longicornis); assay: Oral administration against mouse-infested ticks; conditions: 20 mg in 10 mL test solution at 10 mL per 1 kg body weight, 2 days after administration
Method: Oral Administration Against Mouse-Infested Ticks (Haemaphysalis longicornis)
The previous day before oral administration, 30 test ticks (Haemaphysalis longicornis, young ticks) were deposited on a mouse. Before the oral administration, uninfested ticks were removed.
(§4) The present hydrazide compound (5) (20 mg) was dissolved in dimethylformamide (680 mg), and thereto pure water or a corn oil was added to prepare a test solution (10 mL). Said test solution was orally administered to the mouse at the rate of 10 mL per 1 kg of the body weight of the mouse with a gastric sonde. To a control group, a 7% dimethylformamide/corn oil solution alone was orally administered. Each administration was repeated 3 times per group.
Two (2) days after the administration, the number of dead ticks was examined and the mortality was calculated by the following formula:
Mortality (%)=100×(number of dead ticks/infested ticks before oral administration)

[6] = test system: Mouse-infested ticks (Haemaphysalis longicornis); assay: Dropping application against mouse-infested ticks; conditions: 0.1% w/v solution 200 μL dropwise to whole body surface, 2 days after application
Method: Propping Application Against Mouse-Infested Ticks (Haemaphysalis longicornis)
The previous day before dropping application, 30 test ticks (Haemaphysalis longicornis, young ticks) were deposited on a mouse. Before the dropping application, uninfested ticks were removed.
The present hydrazide compound (5) (5 mg) was dissolved in a mixture (5 mL) of propylene carbonate and diethylene glycol monoethyl ether in equal amounts to prepare a 0.1% w/v solution. Said solution (200 μL) was applied dropwise to the whole body surface of a mouse with a pipette. To a control group, the mixture (200 μL) alone was applied. Each application was repeated 3 times per group.
Two (2) days after the application, the number of dead ticks was examined and the mortality was calculated by the following formula:
Mortality (%)=100×(number of dead ticks/infested ticks before dropping application)

[7] = test system: Mouse-infested cat fleas (Ctenocephalides felis); assay: Oral administration against mouse-infested cat fleas; conditions: 20 mg in 10 mL test solution at 10 mL per 1 kg body weight, 2 days later
Method: Oral Administration Against Mouse-Infested Cat Fleas (Ctenocephalides felis)
as §4, with “at a” for “at the”
After the oral administration, 20 cat fleas were deposited on each mouse. Two (2) days later, the number of cat fleas was examined and the mortality was calculated by the following formula:
as §3

In the case of `CCCCCC(=O)NNc1cc(C2=NOC(c3cc(Cl)cc(Cl)c3)(C(F)(F)F)C2)ccc1Cl` (centres unmarked) [(12), N′-{5-[5-(3,5-dichlorophenyl)-5-trifluoromethyl-4,5-dihydroisoxazol-3-yl]-2-chlorophenyl}hexanohydrazide], the mortality at 100 mg/m2 [1] is reported as ≥ 90%.

`CC(C)(C)C(=O)NNc1cc(C2=NOC(c3cc(Cl)cc(Cl)c3)(C(F)(F)F)C2)ccc1Cl` (centres unmarked) [(8), N′-{5-[5-(3,5-dichlorophenyl)-5-trifluoromethyl-4,5-dihydroisoxazol-3-yl]-2-chlorophenyl}pivalohydrazide] was tested, and the mortality at 100 mg/m2 [1] was ≥ 90%.

With `CC(C)CC(=O)NNc1cc(C2=NOC(c3cc(Cl)cc(Cl)c3)(C(F)(F)F)C2)ccc1Cl` (centres unmarked) [Compound (5), N′-{2-chloro-5-[5-(3,5-dichlorophenyl)-5-trifluoromethyl-4,5-dihydroisoxazol-3-yl]phenyl}isovalerohydrazide] the “Flea control rates (%) at 2 days after the application” value ([2]; dose 10 mg/kg) was 83%, the “Flea control rates (%) at 16 days after the application” value ([2]; dose 10 mg/kg) was 92% and the “Flea control rates (%) at 2 days after the application” value ([2]; dose 20 mg/kg) was 92%. The “Flea control rates (%) at 16 days after the application” value ([2]; dose 20 mg/kg) was 95%, the “Tick control rates (%) at 16 days after the application” value ([3]; dose 10 mg/kg) was 93% and the “Tick control rates (%) at 16 days after the application” value ([3]; dose 20 mg/kg) was 100%. For the same compound, the Mortality [4] was ≥ 70%, the Mortality [5] was ≥ 90% and the Mortality [6] was ≥ 70%. For the same compound, the mortality at 100 mg/m2 [1] was ≥ 90% and the Mortality [7] was ≥ 90%.

For `CCCCC(=O)NNc1cc(C2=NOC(c3cc(Cl)cc(Cl)c3)(C(F)(F)F)C2)ccc1Cl` (centres unmarked) [(11), N′-{5-[5-(3,5-dichlorophenyl)-5-trifluoromethyl-4,5-dihydroisoxazol-3-yl]-2-chlorophenyl}pentanohydrazide], the mortality at 100 mg/m2 [1] was ≥ 90%.
